Reference: patent US20160144021A1, “Vaccine Composition And Method Of Use” (MEDIMMUNE, LLC, priority 2013, published 2016)
Like-named read-outs stand apart in the source and are kept apart here.

What was measured:
[1] = test system: IL-5, IL-13, IFNγ, IL-17, eotaxin; assay: Cytokines in lung homogenates after RSV challenge, naive BALB/c mice; type: in vivo; parameters: pulmonary eotaxin levels (mean): unit not given here
Experimental: Lung homogenates were clarified by centrifugation prior to use. […] F-specific splenic cytokine production was determined by subtracting media alone values from F stimulated values.

[2] = test system: RSV sF protein; assay: IFNγ ELISPOT of splenocytes, naive Sprague Dawley rats; type: in vivo; settings: Day 46, 4 days post RSV challenge
Experimental: Systemic cellular immune responses to vaccination were evaluated in all available animals at Day 46, 4 days post RSV challenge. For each of the groups, individual splenocyte samples were prepared. T-cell readouts were assessed by ELISPOT counts of IFNγ-secreting cells following a 36-48 hour restimulation with RSV sF. Significance was calculated using GraphPad Prism 1-way ANOVA with either Tukey or Bonferroni post test with a significance cutoff of p<0.05.

[3] = test system: RSV sF protein
[4] = test system: RSV sF protein; assay: IFNγ and IL-4 ELISPOT of splenocytes, naive cotton rats; type: in vivo; settings: splenocytes 4 days post challenge, RSV sF restimulation
Experimental: Paired antibodies for cotton rat IFNγ (#DY565) or IL-4 (#DY584) obtained in R&D DuoSet ELISA Systems were used in ELISPOT assay formats for the evaluation of cotton rat cellular immune responses. 96 well PVDF plates (Millipore, Billerica, Mass.) were coated overnight with kit provided capture antibody (anti-IFNγ or anti-IL-4, respectively) at 10 μg/mL in PBS. Plates were blocked with cRPMI-5 for 2 hours. Cells were then incubated on blocked coated plates in cRPMI-5 for 36-48 hours in triplicate with media, RSV sF ([…]), or ConA (5 μg/mL) as a positive control. Following incubation cells were washed away, plates were incubated with included biotinylated detection antibody (1 μg/mL in PBS+1% BSA) followed by streptavidin-HRP (Mabtech, Cincinnati, Ohio) and 3-amino-9-ethylcarbazole (AEC, Vector Labs, Burlingame, Calif.). Plates were read and analyzed using a CTL ImmunoSpot reader and software (Cellular Technology Ltd).

[5] = test system: RSV A2; assay: Lung and nose viral titers by plaque assay after RSV challenge, naive cotton rats; type: in vivo; settings: 0.3 μg RSV sF IM, 4 days post challenge
[6] = test system: RSV-F derived MHC II (I-Ed)-binding peptides; assay: F-specific CD4 T-cell cytokine profiling of restimulated splenocytes, naive BALB/c mice; type: in vivo; settings: splenocytes 4 days post challenge, 72 h restimulation
[7] = test system: RSV sF; assay: Serum F-specific IgA ELISA, 1x RSV seropositive BALB/c mice; type: in vivo; settings: Day 14; RSV sF at 10 μg, RSV sF+GLA-SE at any of the 3 doses
Experimental: Serology readouts were made at Days 0, 14, 28, 42, 56, and 73 for each group. Animals were lightly anesthetized with isoflurane and bled intraorbitally. Serum was separated and stored at −20° C. and thawed for testing. Total anti-F IgG were measured at each timepoint, with anti-F IgG1 and anti-F IgG2a ELISA endpoint dilution titers measured at Day 0 and Day 42. RSV neutralization titer was determined by a RSV A2-GFP microneutralization assay. The polyclonal nature of the anti-F IgG response was evaluated on Day 42 by competition ELISA with site-specific monoclonal antibodies to RSV-F. Anti-F IgA endpoint dilution titers were measured at Day 14 for each group.

[8] = test system: IFNγ, IL-5, IL-13, eotaxin, RANTES; assay: Lung cytokines 4 days post challenge, highly seropositive BALB/c mice
Experimental: One hundred three female BALB/c mice (Charles River), ages 6-8 weeks old, were divided into 13 groups. Group 1 had 7 mice and groups 2 through 13 had 8 mice. Following anaesthetization groups 1 through 12 were dosed with 1×10^6 plaque forming units (PFU) in 100 μL of live RSV via an intranasal (IN) route on Day 0 and Day 35. Group 13 was not exposed to RSV. On Day 56, groups 1 through 11 were immunized with placebo (PBS) or vaccine article via an intramuscular (IM) route following anesthesia with isoflurane. The vaccine articles were formulated in a total of 100 μL with 50 μL given in each hind limb. Group 12 was anesthetized with isoflurane and immunized with 1×10^6 PFU in 100 μL of live RSV via an IN route. […] Sera were obtained from retro orbital blood collection at study days 0, 28, 56 70 and 84, separated from whole blood and stored at −20° C. until evaluated. Spleens from 4 animals in each group were harvested for T cell assays on Day 67, 11 days post immunization, or at day 88, 4 days post challenge. Lung cytokines quantified at 4 days after challenge in individual lung homogenates by luminex assay (Milipore).
Mouse cytokine/chemokine multiplex kits designed to include IFNgamma, IL-5, IL-13, IL-17 and eotaxin (Millipore, Billerica, Mass.) were used to evaluate lung homogenates. Lung homogenates were clarified by centrifugation prior to use. Assays were performed following manufacturer's instructions and plates were analyzed on a Luminex reader (Bio-Rad, Hercules, Calif.).

[9] = Lung histopathology after RSV challenge, naive BALB/c mice; type: in vivo; settings: H&E lung sections day 4 post RSV challenge
Experimental: Lung sections (5 micron) were prepared using a microtome from paraffin-embedded formalin-fixed lung lobes harvested at day 4 post RSV challenge. Sections stained with hematoxylin and eosin were digitally scanned and examined by a licensed pathologist. Lung sections were evaluated for pulmonary lesion characteristics such as presence of bronchiolar hyperplasia, alveolitis, eosinophilic infiltrate and infiltration of the peribronchiolar/perivascular spaces.

[10] = test system: RSV F peptide pool of overlapping 15-mers; assay: F-specific IFNγ ELISPOT of PBMC, cynomolgus monkeys; type: in vivo
Experimental: To determine whether immunization with sF formulated with GLA-SE enhanced an F-specific T cell response, F-specific IFNγ T cell responses were measured by ELISPOT following restimulation with a peptide pool of overlapping 15-mers derived from the RSV F protein sequence. […] While the number of T cells in the sF+GLA-SE group decreased over time, one animal still met the definition of a positive responder out to day 169. At Day 169, 5 months post vaccination, a booster vaccination was given. […] In comparison, 0 of 4 monkeys in the sF alone group responded with an increase in IFNγ secreting F-specific T cells (mean 5 SFC/million).

[11] = lung homogenates 4 days post RSV challenge

RSV sF: RSV soluble F protein, amino acids 1-524 of the RSV A2 F sequence lacking the transmembrane domain, given without adjuvant
mean IFNγ to IL-5 ratio in lung homogenates ([1]; 4 days post RSV challenge, ratio >1.0 = more Th1-type): 0.3
IL-5 and IL-13 in the lungs [1, 11]: detected
pulmonary eotaxin levels (mean) [1, 11]: 911
F-specific IFNγ ELISPOT responses ([2]; 10 μg RSV sF): 64.00 SFU/million cells
F-specific IFNγ ELISPOT responses ([2]; 100 μg RSV sF): 87.78 SFU/million cells
animals with ≧4-fold rise in IgG titers at Day 183 compared to Day 169 ([3]; 4 animals per group): 2 of 4
geomean anti-F IgG titer ([3]; Day 42, 100 μg RSV sF at days 0 and 28): 10.45±2.68 log 2
geomean anti-F IgG titer ([3]; Day 183, 14 days post booster at Day 169): 12.55±2.16 log 2
F-specific IFNγ ELISPOT response (mean) [4]: 58 SFU/million cells
mean RSV titer in the lungs [5]: 5.4 log10 pfu/gram
mean RSV titer in the nose [5]: 4.9 log10 pfu/gram
F-specific CD4 T-cell cytokine production profile [6]: Th2-type response characterized by IL-5 and IL-13 cytokines
serum F-specific IgA titers versus seropositive animals vaccinated with PBS [7]: significantly higher serum F-specific IgA titers
lung RANTES following RSVA2 exposure ([8]; 4 days post challenge): increased with increasing amounts of RSV sF
lung eotaxin and IL-13 upon RSV challenge ([8]; 4 days post challenge): did not induce eotaxin or IL-13 levels higher than any of the other groups
lung IL-5 in response to RSV challenge ([8]; day 88, 4 days post challenge): did not set up mice to induce IL-5
pulmonary inflammation / lesion scores [9]: increased pulmonary lesion scores
mean F-specific IFNγ ELISPOT response ([10]; Day 42): 8 SFC/million PBMC
animals with positive F-specific IFNγ ELISPOT response ([10]; Day 42, ≥50 SFC/million increase and 4-fold rise from day −7): 0 of the 4
animals with positive F-specific IFNγ ELISPOT response ([10]; Day 183): 0 of 4
mean F-specific IFNγ ELISPOT response ([10]; Day 183): 5 SFC/million
